The target of one test is T1, Tyk2 (Homo sapiens, UniProt P29597).
T1 construct: purchased Invitrogen
Nature of the test: Tyk2 enzyme inhibition test (LANCE method). It counts as biochemical. The settings on record: test compound 1 μM; read-out: Inhibitory rate (%) Tyk2 1 μM. In a few lines:
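LANCE TR-FRET read-out (ex 340/em 665 nm, 100 μs delay) of ULight-JAK1 phosphorylation, with no-enzyme wells as 100% inhibition. Reaction run 1 h at room temperature in pH 7.5 HEPES buffer; enzyme 375 ng/mL, substrate 300 nM and ATP 30 μM are solution concentrations before mixing.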
For orientation: Time-resolved FRET reads energy transfer from a long-lived donor to a nearby acceptor.

Another test has as its target T2, JAK1 (Homo sapiens, UniProt P23458).
T2 construct: purchased Invitrogen
The test can be described thus: JAK1 enzyme inhibition test (LANCE method). It counts as biochemical. As to conditions: for inhibition at 1 µM: test compound 1 μM, read-out: Inhibitory rate (%) JAK1 1 μM. Summed up:
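Reactions ran 1 h at room temperature in HEPES pH 7.5/MgCl2 buffer, with ATP solution at 150 μM and JAK1 and ULight peptide solutions at 187.5 ng/mL and 300 nM. Reactions were stopped with EDTA, and phosphorylation was read by Eu antibody time-resolved fluorescence at 665 nm. Inhibition was scaled to a no-enzyme control as 100%.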

T1 sequence (P29597 whole entry): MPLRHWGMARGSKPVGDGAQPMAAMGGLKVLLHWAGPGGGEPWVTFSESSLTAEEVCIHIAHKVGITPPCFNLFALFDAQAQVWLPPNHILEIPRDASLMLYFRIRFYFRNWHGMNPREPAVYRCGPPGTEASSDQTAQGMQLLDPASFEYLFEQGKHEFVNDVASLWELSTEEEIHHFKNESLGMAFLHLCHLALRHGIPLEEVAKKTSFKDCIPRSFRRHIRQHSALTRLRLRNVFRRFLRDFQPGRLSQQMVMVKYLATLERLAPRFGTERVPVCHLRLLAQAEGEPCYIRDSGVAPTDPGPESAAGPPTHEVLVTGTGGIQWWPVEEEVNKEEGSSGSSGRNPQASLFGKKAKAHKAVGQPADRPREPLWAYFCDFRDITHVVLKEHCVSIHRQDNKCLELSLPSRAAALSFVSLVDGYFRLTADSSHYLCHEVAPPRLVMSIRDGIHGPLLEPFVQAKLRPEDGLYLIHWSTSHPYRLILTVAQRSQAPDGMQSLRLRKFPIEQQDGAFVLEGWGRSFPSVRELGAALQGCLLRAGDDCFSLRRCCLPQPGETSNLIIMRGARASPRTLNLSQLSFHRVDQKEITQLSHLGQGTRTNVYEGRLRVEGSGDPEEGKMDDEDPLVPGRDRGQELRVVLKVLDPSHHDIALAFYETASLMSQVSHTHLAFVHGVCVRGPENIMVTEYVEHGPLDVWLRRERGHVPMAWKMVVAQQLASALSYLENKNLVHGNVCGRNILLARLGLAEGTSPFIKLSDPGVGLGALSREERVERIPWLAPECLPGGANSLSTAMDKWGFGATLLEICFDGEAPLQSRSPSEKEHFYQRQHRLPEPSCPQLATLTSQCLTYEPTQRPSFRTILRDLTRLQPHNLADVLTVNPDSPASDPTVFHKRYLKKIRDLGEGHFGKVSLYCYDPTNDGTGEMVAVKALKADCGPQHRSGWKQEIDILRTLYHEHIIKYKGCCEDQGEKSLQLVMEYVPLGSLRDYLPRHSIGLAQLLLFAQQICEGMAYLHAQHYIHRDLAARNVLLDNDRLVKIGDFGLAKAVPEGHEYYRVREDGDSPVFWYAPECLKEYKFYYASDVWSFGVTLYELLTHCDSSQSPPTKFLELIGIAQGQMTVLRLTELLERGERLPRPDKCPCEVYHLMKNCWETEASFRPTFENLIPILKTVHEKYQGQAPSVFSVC
T2 sequence (P23458 whole entry): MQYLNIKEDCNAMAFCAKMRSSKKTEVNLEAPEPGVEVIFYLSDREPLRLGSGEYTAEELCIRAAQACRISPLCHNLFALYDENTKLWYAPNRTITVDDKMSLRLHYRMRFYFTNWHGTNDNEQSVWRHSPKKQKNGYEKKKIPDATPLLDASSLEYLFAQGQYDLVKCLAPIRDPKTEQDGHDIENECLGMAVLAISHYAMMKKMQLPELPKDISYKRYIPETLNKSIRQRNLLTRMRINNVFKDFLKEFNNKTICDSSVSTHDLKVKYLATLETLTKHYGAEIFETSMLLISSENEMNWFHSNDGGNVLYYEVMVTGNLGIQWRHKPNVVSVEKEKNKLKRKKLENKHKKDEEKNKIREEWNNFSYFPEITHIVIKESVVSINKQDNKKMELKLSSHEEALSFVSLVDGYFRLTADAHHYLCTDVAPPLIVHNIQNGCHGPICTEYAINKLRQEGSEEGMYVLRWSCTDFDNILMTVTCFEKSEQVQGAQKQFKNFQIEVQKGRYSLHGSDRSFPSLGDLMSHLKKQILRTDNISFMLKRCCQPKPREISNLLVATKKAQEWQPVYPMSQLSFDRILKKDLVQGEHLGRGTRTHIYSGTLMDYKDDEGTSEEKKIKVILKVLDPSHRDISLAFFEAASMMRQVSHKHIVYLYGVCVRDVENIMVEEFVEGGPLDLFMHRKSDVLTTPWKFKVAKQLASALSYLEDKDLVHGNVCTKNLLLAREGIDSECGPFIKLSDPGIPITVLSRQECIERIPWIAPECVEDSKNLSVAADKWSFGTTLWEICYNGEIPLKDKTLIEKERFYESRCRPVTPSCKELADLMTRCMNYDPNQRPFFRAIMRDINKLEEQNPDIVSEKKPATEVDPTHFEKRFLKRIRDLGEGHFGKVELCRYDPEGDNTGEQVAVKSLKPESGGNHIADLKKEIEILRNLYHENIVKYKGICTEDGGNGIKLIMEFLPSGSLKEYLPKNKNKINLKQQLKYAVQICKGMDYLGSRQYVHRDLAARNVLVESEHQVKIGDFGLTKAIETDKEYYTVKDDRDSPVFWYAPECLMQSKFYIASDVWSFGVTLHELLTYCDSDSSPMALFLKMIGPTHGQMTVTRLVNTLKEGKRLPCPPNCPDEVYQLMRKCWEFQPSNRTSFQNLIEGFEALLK

As for `NS(=O)(=O)c1ccc(-c2cn(C3CCOCC3)c3cc[nH]c(=O)c23)cc1` [Example 16, 4-(4-oxo-1-(tetrahydro-2H-pyran-4-yl)-4,5-dihydro-1H-pyrrolo[3,2-c]pyridin-3-yl)benzenesulfonamide], the inhibition at 1 µM at Tyk2 is 88%; on JAK1, 93%.

In the case of `O=c1[nH]ccc2c1c(-c1csc(N3CCOCC3)c1)nn2-c1c(F)cccc1F` [Example 234, 1-(2,6-difluorophenyl)-3-(5-(morpholin-4-yl)-3-thienyl)-1,5-dihydro-4H-pyrazolo[4,3-c]pyridin-4-one], the inhibition at 1 µM on Tyk2 and on JAK1 was 99% in each case.

Regarding `COC(=O)c1c[nH]c(=O)c2c(-c3csc(C#N)c3)cn(C3CCCC3)c12` [Example 73, methyl 3-(5-cyano-3-thienyl)-1-cyclopentyl-4-oxo-4,5-dihydro-1H-pyrrolo[3,2-c]pyridine-7-carboxylate], the inhibition at 1 µM is 83% on Tyk2 and 45% on JAK1.

In the case of `O=c1[nH]ccc2c1c(-c1ccc(N3CCOCC3)cc1)nn2C1CCC(F)(F)CC1` [Example 266, 1-(4,4-difluorocyclohexyl)-3-(4-(morpholin-4-yl)phenyl)-1,5-dihydro-4H-pyrazolo[4,3-c]pyridin-4-one], the inhibition at 1 µM stood at 91% at Tyk2 and 85% at JAK1.

Turning to `Cc1ccccc1-c1nn(-c2csc(C(=O)O)c2)c2c(=O)[nH]cc(C#N)c12` [Example 69, 4-(4-cyano-3-(2-methylphenyl)-7-oxo-6,7-dihydro-1H-pyrazolo[3,4-c]pyridin-1-yl)thiophene-2-carboxylic acid], the inhibition at 1 µM at Tyk2 stood at 92%; at JAK1, 28%.

As for `NC(=O)c1cc(F)cc(-c2nn(-c3c(F)cccc3F)c3c(Cl)c[nH]c(=O)c23)c1` [Example 270, 3-(7-chloro-1-(2,6-difluorophenyl)-4-oxo-4,5-dihydro-1H-pyrazolo[4,3-c]pyridin-3-yl)-5-fluorobenzamide], the inhibition at 1 µM on Tyk2 worked out at 69%; at JAK1, 0%.

For the compound `O=c1[nH]cc(Cl)c2c1c(-c1ccc(N3CCSCC3)cc1)nn2-c1c(F)cccc1F` [Example 236, 7-chloro-1-(2,6-difluorophenyl)-3-(4-(thiomorpholin-4-yl)phenyl)-1,5-dihydro-4H-pyrazolo[4,3-c]pyridin-4-one], the inhibition at 1 µM at Tyk2 worked out at 99%; on JAK1, 65%.

Take `CCNC(=O)n1cc(-c2nn(-c3c(F)cccc3F)c3c(Cl)c[nH]c(=O)c23)cn1` [Example 222, 4-(7-chloro-1-(2,6-difluorophenyl)-4-oxo-4,5-dihydro-1H-pyrazolo[4,3-c]pyridin-3-yl)-N-ethyl-1H-pyrazole-1-carboxamide]: the inhibition at 1 µM at Tyk2 was 98%; on JAK1, 69%.

On to `NS(=O)(=O)c1ccc(-c2nn(-c3ccccc3)c3cc[nH]c(=O)c23)cc1` [Example 30, 4-(4-oxo-1-phenyl-4,5-dihydro-1H-pyrazolo[4,3-c]pyridin-3-yl)benzenesulfonamide], for which the inhibition at 1 µM at Tyk2 came to 92%; on JAK1, 94%.

`CC[C@@H](COC)n1nc(-c2csc(C(N)=O)c2)c2c(=O)[nH]ccc21` [Example 262, 4-(1-((2S)-1-methoxybutan-2-yl)-4-oxo-4,5-dihydro-1H-pyrazolo[4,3-c]pyridin-3-yl)thiophene-2-carboxamide]: the inhibition at 1 µM on Tyk2 is 92%; at JAK1 it was 97%.

Turning to `CNC(=O)c1cc(F)cc(-c2nn(-c3c(F)cccc3F)c3cc[nH]c(=O)c23)c1` [Example 274, 3-(1-(2,6-difluorophenyl)-4-oxo-4,5-dihydro-1H-pyrazolo[4,3-c]pyridin-3-yl)-5-fluoro-N-methylbenzamide], the inhibition at 1 µM is 77% at Tyk2 and 34% on JAK1.

As for `CCC(CC)n1nc(-c2csc(C(N)=O)c2)c2c(=O)[nH]ccc21` [Example 149, 4-(4-oxo-1-(pentan-3-yl)-4,5-dihydro-1H-pyrazolo[4,3-c]pyridin-3-yl)thiophene-2-carboxamide], the inhibition at 1 µM is 99% at Tyk2 and 100% on JAK1.

`N#Cc1c[nH]c(=O)c2c(-c3csc(C(N)=O)c3)nn(C3CCCC3)c12` [Example 165, 4-(7-cyano-1-cyclopentyl-4-oxo-4,5-dihydro-1H-pyrazolo[4,3-c]pyridin-3-yl)thiophene-2-carboxamide]: the inhibition at 1 µM at Tyk2 amounted to 98%; at JAK1, 96%.

For `CNC(=O)c1ccc(-c2nn(-c3c(F)cccc3F)c3cc[nH]c(=O)c23)cc1` [Example 180, 4-(1-(2,6-difluorophenyl)-4-oxo-4,5-dihydro-1H-pyrazolo[4,3-c]pyridin-3-yl)-N-methylbenzamide], the inhibition at 1 µM came to 101% on Tyk2 and 92% at JAK1.

As for `CC(C)(C)n1nc(Nc2cccc(S(N)(=O)=O)c2)c2c(=O)[nH]ccc21` [Example 248, 3-((1-tert-butyl-4-oxo-4,5-dihydro-1H-pyrazolo[4,3-c]pyridin-3-yl)amino)benzenesulfonamide], the inhibition at 1 µM worked out at 70% at Tyk2 and 96% at JAK1.

With `N#Cc1c[nH]c(=O)c2c(-c3cccc(C(N)=O)c3)cn(C3CCCC3)c12` [Example 89, 3-(7-cyano-1-cyclopentyl-4-oxo-4,5-dihydro-1H-pyrrolo[3,2-c]pyridin-3-yl)benzamide], the inhibition at 1 µM stood at 94% at Tyk2 and 64% on JAK1.

With `O=C(NCCO)c1ccc(-c2nn(-c3c(F)cccc3F)c3cc[nH]c(=O)c23)cc1` [Example 237, 4-(1-(2,6-difluorophenyl)-4-oxo-4,5-dihydro-1H-pyrazolo[4,3-c]pyridin-3-yl)-N-(2-hydroxyethyl)benzamide], the values for the inhibition at 1 µM at Tyk2 and at JAK1 were 99% and 87%, respectively.

As for `CC(C)(C)NC(=O)c1cc(-c2cn(C3CCCC3)c3c(C#N)c[nH]c(=O)c23)cs1` [Example 123, N-tert-butyl-4-(7-cyano-1-cyclopentyl-4-oxo-4,5-dihydro-1H-pyrrolo[3,2-c]pyridin-3-yl)thiophene-2-carboxamide], the inhibition at 1 µM on Tyk2 and at JAK1 was 99% each time.

With `O=c1[nH]ccc2c1c(-c1ccc3nonc3c1)nn2C1CCCC1` [Example 59, 3-(2,1,3-benzoxadiazol-5-yl)-1-cyclopentyl-1,5-dihydro-4H-pyrazolo[4,3-c]pyridin-4-one], the inhibition at 1 µM is 56% at Tyk2 and 66% at JAK1.

Regarding `NS(=O)(=O)c1ccc(-c2cn([C@H]3CC[C@H](O)CC3)c3cc[nH]c(=O)c23)cc1` [Example 31, 4-(1-(trans-4-hydroxycyclohexyl)-4-oxo-4,5-dihydro-1H-pyrrolo[3,2-c]pyridin-3-yl)benzenesulfonamide], the inhibition at 1 µM at Tyk2 stood at 90%; at JAK1, 95%.

As to `COC(=O)c1cc(-c2nn(C3CCOCC3)c3cc[nH]c(=O)c23)cs1` [Example 21, methyl 4-(4-oxo-1-(tetrahydro-2H-pyran-4-yl)-4,5-dihydro-1H-pyrazolo[4,3-c]pyridin-3-yl)thiophene-2-carboxylate], the inhibition at 1 µM amounted to 95% at Tyk2 and 97% at JAK1.

For the compound `NS(=O)(=O)c1ccc(-c2nn(C3CCCC3)c3cc[nH]c(=O)c23)cc1` [Example 92, 4-(1-cyclopentyl-4-oxo-4,5-dihydro-1H-pyrazolo[4,3-c]pyridin-3-yl)benzenesulfonamide], the inhibition at 1 µM at Tyk2 was determined as 99%; at JAK1 it was 100%.

Regarding `CNC(=O)Cc1cccc(-c2nn(-c3c(F)cccc3F)c3cc[nH]c(=O)c23)c1` [Example 253, 2-(3-(1-(2,6-difluorophenyl)-4-oxo-4,5-dihydro-1H-pyrazolo[4,3-c]pyridin-3-yl)phenyl)-N-methylacetamide], the inhibition at 1 µM is 98% on Tyk2 and 87% on JAK1.

Take `NS(=O)(=O)c1ccc(-c2cn(CC(O)CO)c3cc[nH]c(=O)c23)cc1` (centres unmarked) [Example 91, 4-(1-(2,3-dihydroxypropyl)-4-oxo-4,5-dihydro-1H-pyrrolo[3,2-c]pyridin-3-yl)benzenesulfonamide]: the inhibition at 1 µM turned out to be 92% at Tyk2 and 19% on JAK1.

Turning to `N#Cc1cccc(-c2nn(C3CCCC3)c3cc[nH]c(=O)c23)c1` [Example 202, 3-(1-cyclopentyl-4-oxo-4,5-dihydro-1H-pyrazolo[4,3-c]pyridin-3-yl)benzonitrile], the inhibition at 1 µM at Tyk2 turned out to be 87%. Besides, the inhibition at 10 µM at JAK1 (test compound 10 μM (Ex. 182-220), beside Tyk2 1 μM, read-out: Inhibitory rate (%) JAK1 10 μM) was determined as 80%.

For `C[C@H]1COCCN1c1ccc(-c2nn(-c3c(F)cccc3F)c3cc[nH]c(=O)c23)cc1` [Example 245, 1-(2,6-difluorophenyl)-3-(4-((3S)-3-methylmorpholin-4-yl)phenyl)-1,5-dihydro-4H-pyrazolo[4,3-c]pyridin-4-one], the inhibition at 1 µM on Tyk2 worked out at 100%; on JAK1 it was 96%.

Consider `N#Cc1c[nH]c(=O)c2c(-c3cnn(C4CC4)c3)cn(C3CCCC3)c12` [Example 138, 1-cyclopentyl-3-(1-cyclopropyl-1H-pyrazol-4-yl)-4-oxo-4,5-dihydro-1H-pyrrolo[3,2-c]pyridine-7-carbonitrile], for which the inhibition at 1 µM was determined as 99% at Tyk2 and 94% at JAK1.

Take `N#Cc1cccc(F)c1-n1nc(-c2ccc(N3CCOCC3)cc2)c2c(=O)[nH]ccc21` [Example 305, 3-fluoro-2-(3-(4-(morpholin-4-yl)phenyl)-4-oxo-4,5-dihydro-1H-pyrazolo[4,3-c]pyridin-1-yl)benzonitrile]: the results for the inhibition at 1 µM on Tyk2 and at JAK1 were 99% and 93%, respectively.

The values are drawn from patent US9371320B2, “Heterocyclic compound” (TAKEDA PHARMACEUTICAL COMPANY LIMITED, priority 2012, dated 2016).
